Results reported in patent US20210299069A1, “PSAMMAPLIN A FOR MODULATING IDO EXPRESSION” (IDOGEN AB, priority 2016, published 2021).

Legend:
[1] = tested on: human lung (A549) cancer cell line; conditions: cited from earlier work
[2] = tested on: ovarian (SK-OV-3) cancer cell line; conditions: cited from earlier work
[3] = tested on: IDO1 expression in THP-1 cells; assay: Induction of IDO1 in THP-1 cells (RT-qPCR); type: cell-based, human; conditions: for IDO1 expression (fold change): 96 hours, vs DMSO control
Protocol: THP-1 cells were harvested from appropriate number of T75 flasks. Cells were counted in a Bürker chamber, stained with 0.4% Trypan Blue. The appropriate number of cells for each experiment were transferred to a new tube and centrifuged at 1200 rpm, 5 min at room temperature (RT). The supernatant was discarded and fresh RPMI with 5% FBS was added to get a cell concentration of 2×10^5 cells/mL. The compound was added to the five separate wells in 6-well plates such that five different final concentrations were obtained after adding the cells. A control was added to one well in the 6-well plate to which cells were added. 1×10^6 cells per well were seeded out to achieve a total volume of 5 mL per well. The cells were incubated at 37° C. in 5% CO2 for 96 hours. After 96 hours the assay was stopped and the cells were lysed for the isolation of RNA.
Total RNA was extracted from THP-1 cells using the RNA RNeasy Mini extraction kit (Qiagen), according to the manufacturer's instructions. A SuperScript® VILO™ RT-kit (Thermo Fisher) was used to reverse transcribe 1 μg of total RNA to cDNA and qPCR was performed. The primers used for amplification of the human IDO1 gene were 5″-[…]-3″ (forward; SEQ ID No. 1) and 5″-[…]-3″ (reverse; SEQ ID No. 2). The primers used for amplification of the endogenous reference gene for human HPRT1 were 5″-[…]-3″ (forward; SEQ ID No. 3) and 5″-[…]-3″ (reverse; SEQ ID No. 4). In brief, RT-qPCR was performed in 20 μl reaction, consisting 10 μl PowerUp SYBR Green Master Mix, 0.5 μM of each primer, 4 μl diluted cDNA for amplification of IDO1 and 1.5 μl diluted cDNA for amplification of HPRT1. An iCycler iQ real-time detection system (Stratagene, Mx3000P, La Jolla, Calif., USA) with the following thermal profile: UDG incubation at 50° C. for 2 min, then denaturation at 95° C. for 5 min, followed by 45 cycles at 94° C. for 15 s, 58° C. for 30 s, and 60° C. for 30 s, was used to perform thermocycling and real-time detection of PCR products. After amplification a melting curve analysis was performed. The RT-qPCR experiments were always run in triplicate. IDO1 was normalised to the geometric means of two HPRT1 reference gene, using the ΔCt method. Within-group comparisons were normalized to one control sample, using the ΔΔCt method.
The procedure under “Induction of IDO1 in THP-1 cells” was followed such that the final concentrations set out in Table 1 were obtained.
Following RNA extraction and quantification of gene expression by RT-qPRC, as described above, induction of IDO1 gene expression using Samples 1 to 6 was investigated.

[4] = tested on: skin (SK-MEL-2) cancer cell line; conditions: cited from earlier work
[5] = tested on: CNS (XF498) cancer cell line; conditions: cited from earlier work
[6] = tested on: collagen-induced arthritis mouse model; assay: Treatment of collagen-induced arthritis in vivo; conditions: DBA/1 mice, 10 mg/kg for 4 days from arthritis onset, scores monitored 10 days, vs vehicle
Protocol: DBA/1 mice were immunized with bovine type II collagen emulsified in complete Freund's adjuvant. The mice were treated with psammaplin A (10 mg/kg) for 4 days, starting on the day of arthritis onset. Treatment was then stopped. Negative controls received vehicle alone. Clinical scores were monitored for 10 days following onset of arthritis. A clinical scoring system was used as follows. Arthritis severity was scored by an experienced non-blinded investigator as follows: 0=normal, 1=slight swelling and/or erythema, 2=pronounced swelling, 3=ankylosis. All four limbs were scored, giving a maximum possible score of 12 per animal.
The procedure under “Treatment of collagen-induced arthritis in vivo” was followed.
Disease severity was evaluated daily and the mean clinical score of each treatment group was determined. The data points on the graph in FIG. 2 are the mean±SEM of the mice in each treatment.

[7] = tested on: colon (HCT15) cancer cell line; conditions: cited from earlier work
[8] = molecular target: hepatitis C virus NS3 helicase (Hepatitis C virus genotype 1a, UniProt P27958); conditions: dose-response relationship, cited from earlier work
Chain of hepatitis C virus NS3 helicase (P27958 1027-1657): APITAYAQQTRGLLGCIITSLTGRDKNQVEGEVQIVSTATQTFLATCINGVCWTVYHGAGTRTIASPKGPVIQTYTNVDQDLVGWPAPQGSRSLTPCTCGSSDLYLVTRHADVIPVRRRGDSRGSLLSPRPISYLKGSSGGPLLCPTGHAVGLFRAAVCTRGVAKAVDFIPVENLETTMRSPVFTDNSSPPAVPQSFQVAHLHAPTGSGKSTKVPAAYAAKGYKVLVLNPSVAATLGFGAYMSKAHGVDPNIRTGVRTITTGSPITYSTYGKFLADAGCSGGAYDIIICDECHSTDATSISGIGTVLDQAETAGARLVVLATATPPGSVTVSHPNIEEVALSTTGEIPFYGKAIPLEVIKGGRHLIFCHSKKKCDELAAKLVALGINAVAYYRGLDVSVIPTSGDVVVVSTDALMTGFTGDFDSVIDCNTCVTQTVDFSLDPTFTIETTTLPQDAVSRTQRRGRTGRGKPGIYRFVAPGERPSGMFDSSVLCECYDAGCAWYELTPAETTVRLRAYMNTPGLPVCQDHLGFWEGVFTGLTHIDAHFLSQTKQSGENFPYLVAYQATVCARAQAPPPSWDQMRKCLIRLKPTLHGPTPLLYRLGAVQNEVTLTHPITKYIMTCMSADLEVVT

naïve CD4+ CD25− T cells = assay: Conversion of CD4+CD25− T cells into CD4+FoxP3+ Tregs in vitro; type: cell-based
Protocol: To assess the effect of psammaplin A on the generation of Tregs, naïve CD4+ CD25− T cells were cultured with mitomycin C treated APCs plus IL-2, TGFβ and anti-CD3 in the presence or absence of psammaplin A and numbers of CD4^+ FoxP3^+ Tregs were determined by FACS after 72 h. The RNA was isolated from cell lysate, and reverse transcribed to cDNA for RT-qPCR analysis using Taqman primer probes. Expression of genes encoding Foxp3 was normalized to HPRT expression and was calibrated relative to vehicle group.
The procedure under “Conversion of CD4+CD25− T cells into CD4+FoxP3+ Tregs in vitro” was followed. The frequencies of CD4+FoxP3+ Tregs were determined by FACS after 72 h (FIG. 3A and 3B).

[9] = tested on: methicillin-resistant Staphylococcus aureus (MRSA); conditions: gram-positive bacteria, in particular MRSA; cited from earlier work

For `O=C(NCCSSCCNC(=O)/C(Cc1ccc(O)c(Br)c1)=N/O)/C(Cc1ccc(O)c(Br)c1)=N/O` [psammaplin A], the cytotoxicity [1] is given as “significant cytotoxicity”, the cytotoxicity [2] is given as “significant cytotoxicity” and the “IDO1 expression (fold change)” value ([3]; 0.05 micromolar) is given as 0.9 fold change. For the same compound, the “IDO1 expression (fold change)” value ([3]; 0.1 micromolar) was 0.6 fold change, the “IDO1 expression (fold change)” value ([3]; 1 micromolar) was 0.9 fold change and the “IDO1 expression (fold change)” value ([3]; 3 micromolar) was 4.5 fold change. For the same compound, the “IDO1 expression (fold change)” value ([3]; 5 micromolar) was 20 fold change, the “increase of IDO1 gene expression (maximum)” value ([3]; psammaplin A alone, highest level at 5 micromolar) was “up to 20 fold” and the cytotoxicity [4] was “significant cytotoxicity”. For the same compound, the cytotoxicity [5] was “significant cytotoxicity”, the “disease severity (mean clinical score)” value [6] was “successful in reducing disease severity” and the cytotoxicity [7] was “significant cytotoxicity”. The “NS3 ATPase activity inhibition” value [8] was “inhibits NS3 helicase and ATPase activities”, the “NS3 helicase activity inhibition” value ([8]; non-competitive) was “inhibits NS3 helicase” and the “frequencies of CD4+FoxP3+ Tregs (FACS)” value (naïve CD4+ CD25− T cells; co-culture with mitomycin C treated APCs plus IL-2, TGFβ and anti-CD3, 72 h, vs control (nil)) was “increased in a dose-dependent manner”. The “relative expression of the Foxp3 gene (RT-qPCR)” value (naïve CD4+ CD25− T cells; normalized to HPRT, relative to vehicle group (nil)) was “increased in a dose-dependent manner” and the antimicrobial effect [9] was “antimicrobial effect”.
